pIC50: −log10 of the molar value.
Columns and labels:
[1] = system: human vulval epidermoid carcinoma cell line A-431; experiment: Inhibition of growth of A-431 xenografts in athymic nude mice, Test (c); type: in vivo, human xenograft in athymic nude mice (strain ONU:Alpk); conditions: daily dose of 50 mg/kg, usually oral, relative to untreated controls
Experimental: (c) An in-vivo assay in a group of athymic nude mice (strain ONU:Alpk) which determines the ability of a test compound (usually administered orally as a ball-milled suspension in 0.5% polysorbate) to inhibit the growth of xenografts of the human vulval epidermoid carcinoma cell line A-431. A-431 cells were maintained in culture in DMEM supplemented with 5% FCS and 2 mM glutamine. Freshly cultured cells were harvested by trypsinization and injected subcutaneously (10 million cells/0.1 ml/mouse) into both flanks of a number of donor nude mice. When sufficient tumour material was available (after approximately 9 to 14 days), fragments of tumour tissue were transplanted in the flanks of recipient nude mice (test day 0). Generally, on the seventh day after transplantation (test day 7) groups of 7 to 10 mice with similar-sized tumours were selected and dosing of the test compound was commenced. Once daily dosing of test compound was continued for a total of 13 days (test days 7 to 19 inclusive). In some studies the dosing of the test compound was continued beyond test day 19, for example to test day 26. In each case, on the following test day the animals were killed and the final tumour volume was calculated from measurements of the length and width of the tumours. Results were calculated as a percentage inhibition of tumour volume relative to untreated controls.

[2] = system: human naso-pharyngeal cancer cell line KB; experiment: Inhibition of EGF-stimulated growth of human naso-pharyngeal cancer cell line KB, Test (b); type: cell-based; conditions: 72 h, EGF (10 ng/ml), 3 days, approximate
Experimental: (b) An in vitro assay which determines the ability of a test compound to inhibit the EGF-stimulated growth of the human naso-pharyngeal cancer cell line KB. […] Cell growth was determined after incubation for 3 days by the extent of metabolism of MTT tetrazolium dye to furnish a bluish colour. Cell growth was then determined in the presence of EGF (10 ng/ml) or in the presence of EGF (10 ng/ml) and a test compound at a range of concentrations. An IC50 value could then be calculated.

[3] = molecular target: T1, EGF receptor tyrosine kinase (Homo sapiens, UniProt P00533); experiment: Inhibition of EGF receptor tyrosine kinase in vitro, Test (a); type: biochemical; conditions: approximate
T1 construct: Receptor tyrosine kinase was obtained in partially purified form from A-431 cells (derived from human vulval carcinoma); endogenous in cells; host or cells: A-431 cells (Triton X-100 solubilised membrane fraction)
Experimental: (a) An in vitro assay which determines the ability of a test compound to inhibit the enzyme EGF receptor tyrosine kinase. Receptor tyrosine kinase was obtained in partially purified form from A-431 cells (derived from human vulval carcinoma) by the procedures described below which are related to those described by Carpenter et al., J. Biol. Chem., 1979, 254, 4884, Cohen et al., J. Biol. Chem., 1982, 257, 1523 and by Braun et al., J. Biol. Chem., 1984, 259, 2051.
A-431 cells were grown to confluence using Dulbecco's modified Eagle's medium (DMEM) containing 5% fetal calf serum (FCS). The obtained cells were homogenised in a hypotonic borate/EDTA buffer at pH 10.1. The homogenate was centrifuged at 400 g for 10 minutes at 0-4° C. The supernatant was centrifuged at 25,000 g for 30 minutes at 0-4° C. […]
The test compound/EGF mixture solution (5 μl) was added to the test enzyme solution (10 μl) and the mixture was incubated at 0-4° C. for 30 minutes. […] Radioactivity present in the filter paper was measured using a liquid scintillation counter (Sequence A). […]
Receptor tyrosine kinase inhibition was calculated as follows: [formula]
The extent of inhibition was then determined at a range of concentrations of test compound to give an IC50 value.

[4] = system: human mammary carcinoma which expresses EGF receptor tyrosine kinase; conditions: in words; athymic nude mice; Toi et al., 1990; cited from earlier work
[5] = system: another carcinoma which does not express EGF receptor tyrosine kinase; conditions: in words; Toi et al., 1990; cited from earlier work

T1 sequence (P00533 25-1210): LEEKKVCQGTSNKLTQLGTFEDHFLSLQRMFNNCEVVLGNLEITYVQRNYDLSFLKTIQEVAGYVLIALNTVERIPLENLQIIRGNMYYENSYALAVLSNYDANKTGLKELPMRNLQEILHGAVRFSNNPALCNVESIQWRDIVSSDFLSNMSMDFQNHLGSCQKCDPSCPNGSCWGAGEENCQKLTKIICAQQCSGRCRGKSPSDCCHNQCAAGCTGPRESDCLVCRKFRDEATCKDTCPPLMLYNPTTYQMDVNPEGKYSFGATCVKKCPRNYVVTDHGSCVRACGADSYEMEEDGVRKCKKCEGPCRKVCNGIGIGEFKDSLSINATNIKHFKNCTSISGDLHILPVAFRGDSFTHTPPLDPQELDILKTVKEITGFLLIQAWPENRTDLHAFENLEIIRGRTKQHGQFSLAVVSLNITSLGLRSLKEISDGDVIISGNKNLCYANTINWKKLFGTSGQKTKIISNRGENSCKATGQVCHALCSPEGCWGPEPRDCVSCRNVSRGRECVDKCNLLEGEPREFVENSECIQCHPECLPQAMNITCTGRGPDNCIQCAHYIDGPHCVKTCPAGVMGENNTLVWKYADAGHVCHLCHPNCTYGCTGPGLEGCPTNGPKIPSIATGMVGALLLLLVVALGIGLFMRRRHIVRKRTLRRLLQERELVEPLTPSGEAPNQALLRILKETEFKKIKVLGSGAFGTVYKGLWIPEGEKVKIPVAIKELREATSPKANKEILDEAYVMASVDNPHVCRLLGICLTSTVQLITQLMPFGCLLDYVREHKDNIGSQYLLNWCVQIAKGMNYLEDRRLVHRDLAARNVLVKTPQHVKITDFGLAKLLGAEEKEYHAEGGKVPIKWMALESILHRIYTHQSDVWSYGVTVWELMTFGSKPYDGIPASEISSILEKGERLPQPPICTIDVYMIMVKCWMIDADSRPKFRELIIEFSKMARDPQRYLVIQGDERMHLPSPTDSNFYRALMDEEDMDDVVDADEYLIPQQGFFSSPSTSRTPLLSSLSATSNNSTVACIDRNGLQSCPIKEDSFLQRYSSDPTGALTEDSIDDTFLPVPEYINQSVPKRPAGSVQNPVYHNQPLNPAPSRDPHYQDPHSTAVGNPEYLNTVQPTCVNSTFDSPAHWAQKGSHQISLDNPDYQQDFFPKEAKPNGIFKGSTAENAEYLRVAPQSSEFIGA

pIC50 [2]	pIC50 [3]	SMILES	inhibition of tumour volume [1]	growth of transplanted human mammary carcinoma [4]	growth of carcinoma not expressing EGF receptor tyrosine kinase [5]
~5.92	–	Fc1ccc(Nc2ncnc3ccc(OCCCN4CCOCC4)cc23)cc1F [4-(3',4'-difluoroanilino)-6-(3-morpholinopropoxy)quinazoline]	greater than 50%	–	–
~7.00	~8.52	CCN(CC)CCCOc1ccc2ncnc(Nc3ccc(F)c(Cl)c3)c2c1 [4-(3'-chloro-4'-fluoroanilino)-6-(3-diethylaminopropoxy)quinazoline]	greater than 50%	–	–
–	–	O=CN/C=C/c1cc(O)ccc1O [erbstatin]	–	specifically attenuates the growth	without effect on the growth
